Measurements taken from article PMC11349956 (EJNMMI Radiopharmacy and Chemistry, 2024).
Where a name gives a salt, the structure may show the parent alone.

Columns and labels:
[1] = biological target: DAT (Rattus norvegicus, UniProt P23977); format: in vivo; details: GBR12909 12.5 mg/kg i.p. 15 min before LBT-999 0.02 mg/kg i.v.
[2] = rat striatum, 18F-LBT-999, ref Sérrière et al. [2014]; cited from earlier work

DAT, sequence (P23977 whole entry): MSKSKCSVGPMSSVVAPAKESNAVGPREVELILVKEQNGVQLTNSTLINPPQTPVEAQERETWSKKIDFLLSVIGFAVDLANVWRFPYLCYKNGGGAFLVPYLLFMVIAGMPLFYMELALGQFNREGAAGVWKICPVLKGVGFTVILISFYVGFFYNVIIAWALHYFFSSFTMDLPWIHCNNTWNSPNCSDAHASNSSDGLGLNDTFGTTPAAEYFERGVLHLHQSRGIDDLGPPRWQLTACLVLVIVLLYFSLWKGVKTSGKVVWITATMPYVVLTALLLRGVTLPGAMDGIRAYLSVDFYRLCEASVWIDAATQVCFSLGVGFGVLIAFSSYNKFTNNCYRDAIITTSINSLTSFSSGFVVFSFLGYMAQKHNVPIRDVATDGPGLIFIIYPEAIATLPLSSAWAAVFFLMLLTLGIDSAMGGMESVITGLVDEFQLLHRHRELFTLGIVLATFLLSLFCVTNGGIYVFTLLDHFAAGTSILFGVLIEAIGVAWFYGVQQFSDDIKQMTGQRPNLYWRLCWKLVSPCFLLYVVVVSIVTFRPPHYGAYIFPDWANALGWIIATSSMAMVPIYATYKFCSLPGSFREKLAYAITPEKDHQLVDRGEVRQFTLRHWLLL

SMILES | effect on brain binding of LBT-999 [1] | average percentage of injected doses in the striatum derived from PET studies [2] [%]
Fc1ccc(C(OCCN2CCN(CCCc3ccccc3)CC2)c2ccc(F)cc2)cc1 [GBR 12909, 1-(2-bis(4-fluorophenyl)methoxy)ethyl)-4-(3-phenylpropyl)piperazine hydrochloride] | prevented any binding of LBT-999 | –
COC(=O)[C@H]1[C@@H](c2ccc(C)cc2)C[C@@H]2CC[C@H]1N2C/C=C/C[18F] [18F-LBT-999] | – | 2.17 ± 0.42
